{
  "source": "patent US11472807B2",
  "about": "“Purine derivatives for use as medicament and for use in treating neurodegenerative or neuro-inflammatory disorders” (COMMISSARIAT À L'ENERGIE ATOMIQUE ET AUX ENERGIES …, priority 2017, dated 2022)",
  "key": {"p-Tau (Thr212)": {"test_system": "p-Tau (Thr212)", "assay": "p-Tau (Thr212)/total Tau in rat cortical neurons (western-blot)", "format": "cell-based", "conditions": "purine derivative 10 μM (A100), 18 h", "experimental": "Cells were lysed in freshly prepared lysis buffer containing in mM: Tris-HCl 50, EDTA 2, EGTA 2, NaCl 100, SDS 0.2%, Triton X-100 1%, proteases inhibitors (Roche Protease Inhibitor Cocktail #04693116001), phosphatases inhibitors (in mM: ammonium molybdate 0.1, β-glycerophosphate 20, NaF 50, Na-pyrophosphate 10, Orthovanadate 1). Protein concentration was measured by the Bradford assay and Laemmli buffer was added to each lysate. Proteins (10 μg per lane) were resolved on 12% Nu-PAGE (LifeTechonoliges #NP0342BOX) using MOPS SDS running buffer and transferred on Immobilon-FL PVDF membrane (Millipore #IPFL00010). Membranes were blocked one hour in TBS Tween20 0.1% BSA 5% at room temperature. Primary antibodies were incubated O/N at 4° C. and detected by Alexa 488 conjugated secondary antibodies (Life Techonologies #A11034 and A11029) diluted 1:1.000 in TBS Tween20 0.05% and 1% BSA. The antibodies specific for pThr212-Tau (Abcam #ab4842), pThr181-Tau (AbCam #ab75679), Tau (Millipore #MAB361), APP (Millipore #07-667) and Actin (Millipore #MAB1501) were diluted in TBS Tween20 0.05% and 1% BSA. Fluorescent signal was visualized with the VersaDoc™ Imaging System (Bio-Rad Laboratories) and quantified with Quantity One® Analysis Software. Grey levels measured for bands of interest were normalized to the corresponding actin bands.\nFor assessing the protein Tau's phosphorylation, the culture media of rat cortical neurons were replaced by incubation medium containing purine derivatives at 10 μM (A100) or vehicle (0.1% DMSO; Control). After 18 h incubation p-Tau (Thr212) and total Tau were quantified in the cellular extracts by western-blot."}, "[1]": {"test_system": "non-spatial medium-term memory", "assay": "Novel object recognition (NOR) test", "format": "in vivo, C57Bl/6J mice", "conditions": "WT mice, 8 mg/kg subcutaneous, 28 days", "experimental": "FIG. 14. Plots illustrating the effect of Aftin-5 on non-spatial medium-term memory. C57B1/6J mice were exposed sub-cutaneously to (A) the vehicle condition (DMSO/PEG) or (B) Aftin-5 at 8 mg/kg, during 28 days through an Alzet pump. 3-4 weeks later, cognitive abilities were assessed through different novel object recognition (NOR) tests, including the recognition of familiar objects (dark gray bars) or novel objects (light gray bars). Two-way ANOVA and Bonferroni post-hoc tests were performed and *p<0.05 indicates significant differences between Aftin-5 and control conditions, **p<0.01. Data expressed as means+/−SEM with n=15 mice/condition.\nThe NOR test is a test to assess the medium-term non-spatial memory (object). This test takes place in 3 sessions: the Open Field, the Familiarization session and the Test session. The first session allows the habituation of the mouse to the arena. The mouse is placed in the empty arena for 15 min. During this session, the velocity, locomotor activity and anxiety of the mouse are checked. The second session is to familiarize the animal with objects. For this, 24 hours after the Open Field, the mouse is placed in the arena containing two identical objects. The mouse will explore the arena and the two objects placed in the center for 10 min. Finally, after an interval of pre-established time (24 hours), the mouse is placed again in the same arena. […]"}, "CREB": {"test_system": "CREB", "assay": "CREB mRNA in OHSC (RT-qPCR)", "format": "cell-based", "conditions": "OHSCs from WT mice, 50 μM, 10 days", "experimental": "FIG. 15. Plots illustrating the effect of Aftin-5 on relative mRNA expression levels of Long Term Potentialisation (LTP) biomarkers, i.e CREB (A), PSD95 (B) and BDNF (C) in C57B16J OHSC mice treated chronically with Aftin-5. OHSC culture media of OHSC were replaced by incubation medium containing Aftin-5 (50 μM; A50) or vehicle (0.1% DMSO; Veh). 10 days later, total mRNA in lysate was isolated and purified, cDNAs were then synthesized from […] of total mRNA. cDNAs were amplified by quantitative RT-PCR and the relative expression of specific genes was normalized to the housekeeping gene HPRT1 (2^—ΔCt). […] Data expressed as means+/−SEM from q=3 independent experiments with n=4-6 inserts/condition and 10 slices/insert. […]\nThe impact of Aftin-5 on gene expression of different biomarkers was determined by measuring mRNA levels of selected BDNF, CREB, PS95, INS Receptor/IGF-1 receptor, IL-1β, IL-6 in OHSC treated chronically with Aftin-5 or in a total brain from mice exposed to Aftin-5 at either 8 or 30 mg/Kg. […] RNA concentration was measured spectrophotometrically at 260 nm in a NanoDrop 2000c (Thermo Scientific, Villebon-sur-Yvette, France) (sample A260 nm/A280 nm ratios over 1.8 indicated reduced genomic DNA contamination). cDNAs were synthesized from 0.5 μg of total RNA with RT^2 First Strand kit (Qiagen, Courtaboeuf, France) according to the manufacturer's protocol and stored at −80° C. […]"}},
  "data": [
    {"smiles": "CC[C@H](CO)Nc1nc(N(C)c2ccccc2)c2ncn(C(C)C)c2n1", "note": "[Aftin-5]", "values": [
      {"measurement": "Attenuation of P-Tau/Tau ratio", "setting": "p-Tau (Thr212)", "result": "+(>1 μM) (“+” means that the tested compound shows an anti-inflammatory and/or attenuation of Tau's phosphorylation property with a concentration higher than 1 μM)"},
      {"measurement": "improvement of long term object recognition memory in NOR test", "setting": "[1]", "result": "does not achieve significance"},
      {"measurement": "CREB mRNA", "setting": "CREB", "result": "transcriptional upregulation"}
    ]}
  ]
}
